# How the values were obtained:
# Burkholderia glumae [1] = assay: Test Example 9: amount of toxoflavin produced in culture solution, with comparative compound; format: cell-based; settings: 0, 20, 40, 60, 80 or 100 μM, shake culturing 20 hours, FIG. 6
# Protocol: Burkholderia glumae was inoculated into an LB culture medium (produced by BD (Difco LB Broth: containing tryptone (10.0 g), yeast extract (5.0 g), and sodium chloride (10.0 g)), and cultured at 37° C. overnight. The thus-obtained culture solution was subjected to bacterial collection using a centrifuge, and washed with an LB culture medium twice using a fresh LB culture medium each time. To the bacterial cell a fresh LB culture medium was added, and then Compound (1) produced in Production Example 1 was added thereto in such a manner that its final concentration became a predetermined value (i.e., 0, 20, 40, 60, 80 or 100 μM), followed by shake culturing for 20 hours. The amount of toxoflavin produced by the bacterial cell in the culture solution was obtained by the following procedure.
# Each culture solution was filtered by a 0.22-μm membrane filter, and 1 mL of the filtrate was isolated. One mL of chloroform was added to the filtrate, followed by extraction. The thus-obtained chloroform layer was concentrated under reduced pressure, and an 80% (V/V) an aqueous methanol solution was added to and dissolved in the residue. The absorbance (at 260 nm) of the solution was measured, and the toxin doses were calculated from the calibration curve, which was obtained using chemically synthesized standard toxin. […]
# Burkholderia glumae [2] = assay: Test Example 2: number of microorganisms in culture solution (colony count); format: cell-based; settings: final concentration 100 μM, after 36 hours of cultivation, FIG. 1
# Protocol: Burkholderia glumae was inoculated into an LB culture medium, and cultured at 37° C. overnight. The thus-obtained culture solution was subjected to bacterial collection using a centrifuge, washed with an LB culture medium twice using a fresh LB culture medium each time. To the bacterial cell a fresh LB culture medium was added to prepare a culture suspension of about 3.0×10^5 cfu/mL. Thereafter, each of Compound (1), Compound (2), Compound (3), Compound (4), Compound (5), Compound (8) and Compound (9) produced in Production Examples 1-5 were added to the culture suspension in such a manner that their final concentration became 100 μM, followed by shake culturing for 36 hours. The number of microorganisms in the culture solution 24 hours and 36 hours after the initiation of the culturing were obtained by the following procedure. Specifically, a portion of the culture solution was removed and diluted 1,000-fold, and then seeded to an LB culture medium agar plate. The number of colonies were counted to obtain the number of microorganisms.
# The same experiments were conducted, as comparative tests, using Comparative Compounds (1)-(3), which were produced in Reference Examples 1-3 and the below-explained compound (Comparative Compound (4)), which is disclosed in Patent Document 1, thereby obtaining the number of microorganisms.
# [3] = test system: (gfp expression PAO1-strain); assay: Test Example 7: biofilm formation inhibition in flow cell system; format: cell-based, Burkholderia aeruginosa; settings: test liquid at 200 μL per minute, observed up to 84 hours by confocal microscope, FIG. 5
# Protocol: Using the flow cell system shown in FIG. 4, the […] aeruginosa biofilm formation inhibition effect of Compound (2), which was produced using Production Example 2, was evaluated.
# A culture medium bottle (1), peristaltic pump (2), glass cell (4) and waste fluid bottle (5) are connected via a silicon tube (6) so that a culture medium (9) is supplied to the glass cell (4) from the culture medium bottle (1) using the peristaltic pump (2). The system includes an air removal section (3) between the peristaltic pump (2) and a turncock (7a) for removing entrained air. All components in the flow cell system were sterilized using gamma rays or an autoclave.
# As described later, the inhibitory effect against biofilm formation of each of the compounds can be examined in the following manner. Bacteria are cultured in a glass cell (4) to grow a biofilm on the inner wall of the cell, and a test liquid containing one of the compounds is applied to the biofilm. Then the state of the biofilm is observed to evaluate the inhibitory effect against biofilm formation of the compound using a spectral confocal and multiphoton microscope (Leica TCS SP2: produced by Leica). […]
# [4] = test system: Porphyromonas gingivalis 381-strain; assay: Test Example 8: biofilm formation inhibition on hydroxyapatite disks in flow cell system; format: cell-based
# Protocol: Using the flow cell system shown in FIG. 4, the Porphyromonas gingivalis biofilm formation inhibition effect of Compound (2), which was produced in Production Example 2, was evaluated.
# Bacteria: Periodontitis pathogenic bacteria Porphyromonas gingivalis 381-strain (clinical strain) were used.
# Culture Medium: A GAM culture medium containing […] and 1 μg/L menadione was used.
# Bacterial Suspension The 381-strain was inoculated into the GAM culture medium, and cultivated until the stationary phase (OD550=1.8). Then the culture medium was diluted 20-fold by the GAM culture medium described above.
# Test liquid: The test liquid was prepared by dissolving Compound (2) into DMSO to obtain 100 μM of DMSO solution of Compound (2). […]
# After the cultivation, the HA disks were dipped in 300 μL of sterile distilled water, and treated by supersonic waves for 30 minutes at 4° C. […] Then, the turbidity of 10 μL of the suspension liquid was measured with an absorptiometer (C07500 calorimeter, produced by Funakoshi) (measurement wavelength=550 nm).
# A mean OD was found based on the resulting OD values, excluding the minimum and maximum values. Likewise, the turbidity of the control test liquid was obtained and determined as a control OD value, and then the control mean OD value was found in the same manner. […]
structure (smiles),measurement,setting,value
"CCCCCCCCCC(=O)CC(=O)Nc1ccccc1O [Comparative Compound (5), reference compound]",toxin doses produced by bacteria (toxoflavin),Burkholderia glumae [1],almost no change
"CCc1cc(=O)n2cccc(O)c2n1 [Compound (8), 9-hydroxy-2-ethyl-4H-pyrid[1,2-a]pyrimidin-4-one]",control activity against Burkholderia glumae (number of microorganisms),Burkholderia glumae [2],can kill almost all Burkholderia glumae
"CCCCCc1cc(=O)n2cccc(O)c2n1 [Compound (2), 9-hydroxy-2-n-pentyl-4H-pyrid[1,2-a]pyrimidin-4-one]",biofilm formation on inner wall of glass cell,[3],biofilm formation was not observed
same,Mean OD Value,"[4]; 100 μM, 14 days circulation, turbidity of biofilm suspension at 550 nm",0.041
same,inhibition at 100 µM,"[4]; Porphyromonas gingivalis, 381STRAIN, 336 h, read-out: Inhibition Rate (%) (biofilm formation inhibition rate)",56.4%
"CCCCc1cc(=O)n2cccc(O)c2n1 [Compound (9), 9-hydroxy-2-n-butyl-4H-pyrid[1,2-a]pyrimidin-4-one]",control activity against Burkholderia glumae (number of microorganisms),Burkholderia glumae [2],can kill almost all Burkholderia glumae
